Laboratory results published in ChEMBL document CHEMBL1152576, “E-Combretastatin and E-resveratrol structural modifications: antimicrobial and cancer cell growth inhibitory beta-E-nitrostyrenes” (Bioorg Med Chem, 2009).
≈ marks a conversion by molar mass, not a printed value. Calls of active or inactive are those of the source. The rule behind the calls is not given here.

Tested on: KM-20L2
Assay: Cytotoxicity against human KM20L2 cells after 48 hrs by sulforhodamine B assay
Type: functional
Settings: KM-20L2, 48 h

Compound | GI50
COc1ccc(/C=C/[N+](=O)[O-])cc1 | 1.5 µg/mL (≈ 8.37 µM)
COc1cc(/C=C/[N+](=O)[O-])cc(OC)c1O | 1.1 µg/mL (≈ 4.88 µM)

Tested on: Micrococcus luteus
Assay: Antimicrobial activity against Micrococcus luteus Presque Isle 456 by broth microdilution susceptibility assay
Type: functional
Settings: not given

Compound | MIC
COc1ccc(/C=C/[N+](=O)[O-])cc1 | > 64 µg/mL
COc1cc(/C=C/[N+](=O)[O-])cc(OC)c1O | > 64 µg/mL

Tested on: Stenotrophomonas maltophilia
Assay: Antimicrobial activity against Stenotrophomonas maltophilia ATCC 13637 assessed clear zone in inhibition per disk by CLSI disk diffusion susceptibility assay
Type: functional
Settings: not given

Compound | MIC
COc1ccc(/C=C/[N+](=O)[O-])cc1 | 12.5 µg
COc1cc(/C=C/[N+](=O)[O-])cc(OC)c1O | 50 µg

Tested on: NCI-H460
Assay: Cytotoxicity against human NCI-H460 cells after 48 hrs by sulforhodamine B assay
Type: functional
Settings: NCI-H460, 48 h

Compound | GI50
COc1ccc(/C=C/[N+](=O)[O-])cc1 | 1.7 µg/mL (≈ 9.49 µM)
COc1cc(/C=C/[N+](=O)[O-])cc(OC)c1O | 0.38 µg/mL (≈ 1.69 µM)

Tested on: OVCAR-3
Assay: Cytotoxicity against human OVCAR-3 cells after 48 hrs by sulforhodamine B assay
Type: functional
Settings: not given

Compound | GI50
COc1ccc(/C=C/[N+](=O)[O-])cc1 | inactive
COc1cc(/C=C/[N+](=O)[O-])cc(OC)c1O | inactive

Tested on: Candida albicans
Assay: Antifungal activity against Candida albicans ATCC 90028 after 24 hrs by broth microdilution susceptibility assay
Type: functional
Settings: ATCC 90028, 24 h

Compound | MFC
COc1ccc(/C=C/[N+](=O)[O-])cc1 | 16 µg/mL (≈ 89.3 µM)

Tested on: Enterococcus faecalis
Assay: Antimicrobial activity against Enterococcus faecalis ATCC 29212 by broth microdilution susceptibility assay
Type: functional
Settings: not given

Compound | MIC
COc1ccc(/C=C/[N+](=O)[O-])cc1 | > 64 µg/mL
COc1cc(/C=C/[N+](=O)[O-])cc(OC)c1O | > 64 µg/mL

Tested on: Candida albicans
Assay: Antimicrobial activity against Candida albicans ATCC 90028 assessed clear zone in inhibition per disk by CLSI disk diffusion susceptibility assay
Type: functional
Settings: not given

Compound | MIC
COc1ccc(/C=C/[N+](=O)[O-])cc1 | 3.12 µg
COc1cc(/C=C/[N+](=O)[O-])cc(OC)c1O | 50 µg

Tested on: Streptococcus pneumoniae
Assay: Antimicrobial activity against Streptococcus pneumoniae ATCC 6303 by broth microdilution susceptibility assay
Type: functional
Settings: not given

Compound | MIC
COc1ccc(/C=C/[N+](=O)[O-])cc1 | > 64 µg/mL
COc1cc(/C=C/[N+](=O)[O-])cc(OC)c1O | 64 µg/mL (≈ 284 µM)

Tested on: Escherichia coli
Assay: Antimicrobial activity against Escherichia coli ATCC 25922 assessed clear zone in inhibition per disk by CLSI disk diffusion susceptibility assay
Type: functional
Settings: not given

Compound | MIC
COc1ccc(/C=C/[N+](=O)[O-])cc1 | 6.25 µg
COc1cc(/C=C/[N+](=O)[O-])cc(OC)c1O | >100 µg

Tested on: SF-268
Assay: Cytotoxicity against human SF268 cells after 48 hrs by sulforhodamine B assay
Type: functional
Settings: not given

Compound | GI50
COc1ccc(/C=C/[N+](=O)[O-])cc1 | inactive

Same assay, conditions: SF-268, 48 h

Compound | GI50
COc1cc(/C=C/[N+](=O)[O-])cc(OC)c1O | 0.54 µg/mL (≈ 2.4 µM)

Tested on: Staphylococcus aureus
Assay: Antimicrobial activity against Staphylococcus aureus ATCC 29213 assessed clear zone in inhibition per disk by CLSI disk diffusion susceptibility assay
Type: functional
Settings: not given

Compound | MIC
COc1ccc(/C=C/[N+](=O)[O-])cc1 | 12.5 µg
COc1cc(/C=C/[N+](=O)[O-])cc(OC)c1O | >100 µg

Tested on: Cryptococcus neoformans
Assay: Antifungal activity against Cryptococcus neoformans ATCC 90112 after 72 hrs by broth microdilution susceptibility assay
Type: functional
Settings: ATCC 90112, 72 h

Compound | MIC
COc1ccc(/C=C/[N+](=O)[O-])cc1 | 16 µg/mL (≈ 89.3 µM)
COc1cc(/C=C/[N+](=O)[O-])cc(OC)c1O | 64 µg/mL (≈ 284 µM)

Tested on: BXPC-3
Assay: Cytotoxicity against human BxPC3 cells after 48 hrs by sulforhodamine B assay
Type: functional
Settings: BXPC-3, 48 h

Compound | GI50
COc1ccc(/C=C/[N+](=O)[O-])cc1 | 1.8 µg/mL (≈ 10 µM)
COc1cc(/C=C/[N+](=O)[O-])cc(OC)c1O | 1.5 µg/mL (≈ 6.66 µM)

Tested on: Streptococcus pneumoniae
Assay: Antimicrobial activity against Streptococcus pneumoniae ATCC 6303 after 24 hrs by broth microdilution susceptibility assay
Type: functional
Settings: ATCC 6303, 24 h

Compound | MBC
COc1cc(/C=C/[N+](=O)[O-])cc(OC)c1O | > 64 µg/mL

Tested on: Enterobacter cloacae
Assay: Antimicrobial activity against Enterobacter cloacae ATCC 13047 assessed clear zone in inhibition per disk by CLSI disk diffusion susceptibility assay
Type: functional
Settings: not given

Compound | MIC
COc1ccc(/C=C/[N+](=O)[O-])cc1 | 12.5 µg
COc1cc(/C=C/[N+](=O)[O-])cc(OC)c1O | >100 µg

Tested on: Neisseria gonorrhoeae
Assay: Antimicrobial activity against Neisseria gonorrhoeae ATCC 49226 by broth microdilution susceptibility assay
Type: functional
Settings: not given

Compound | MIC
COc1ccc(/C=C/[N+](=O)[O-])cc1 | 2 µg/mL (≈ 11.2 µM)
COc1cc(/C=C/[N+](=O)[O-])cc(OC)c1O | 4 µg/mL (≈ 17.8 µM)

Tested on: Neisseria gonorrhoeae
Assay: Antimicrobial activity against Neisseria gonorrhoeae ATCC 49226 after 24 hrs by broth microdilution susceptibility assay
Type: functional
Settings: ATCC 49226, 24 h

Compound | MBC
COc1ccc(/C=C/[N+](=O)[O-])cc1 | 2 µg/mL (≈ 11.2 µM)
COc1cc(/C=C/[N+](=O)[O-])cc(OC)c1O | 4 µg/mL (≈ 17.8 µM)

Tested on: Streptococcus pneumoniae
Assay: Antimicrobial activity against Streptococcus pneumoniae ATCC 6303 assessed clear zone in inhibition per disk by CLSI disk diffusion susceptibility assay
Type: functional
Settings: not given

Compound | MIC
COc1ccc(/C=C/[N+](=O)[O-])cc1 | 6.25 µg
COc1cc(/C=C/[N+](=O)[O-])cc(OC)c1O | 6.25 µg

Tested on: Enterobacter cloacae
Assay: Antimicrobial activity against Enterobacter cloacae ATCC 13047 by broth microdilution susceptibility assay
Type: functional
Settings: not given

Compound | MIC
COc1ccc(/C=C/[N+](=O)[O-])cc1 | > 64 µg/mL
COc1cc(/C=C/[N+](=O)[O-])cc(OC)c1O | > 64 µg/mL

Tested on: Cryptococcus neoformans
Assay: Antifungal activity against Cryptococcus neoformans ATCC 90112 after 48 hrs by broth microdilution susceptibility assay
Type: functional
Settings: ATCC 90112, 48 h

Compound | MFC
COc1ccc(/C=C/[N+](=O)[O-])cc1 | 16 µg/mL (≈ 89.3 µM)
COc1cc(/C=C/[N+](=O)[O-])cc(OC)c1O | 64 µg/mL (≈ 284 µM)

Tested on: A498
Assay: Cytotoxicity against human A498 cells after 48 hrs by sulforhodamine B assay
Type: functional
Settings: not given

Compound | GI50
COc1ccc(/C=C/[N+](=O)[O-])cc1 | inactive
COc1cc(/C=C/[N+](=O)[O-])cc(OC)c1O | inactive

Tested on: Stenotrophomonas maltophilia
Assay: Antimicrobial activity against Stenotrophomonas maltophilia ATCC 13637 by broth microdilution susceptibility assay
Type: functional
Settings: not given

Compound | MIC
COc1ccc(/C=C/[N+](=O)[O-])cc1 | > 64 µg/mL
COc1cc(/C=C/[N+](=O)[O-])cc(OC)c1O | > 64 µg/mL

Tested on: Staphylococcus aureus
Assay: Antimicrobial activity against Staphylococcus aureus ATCC 29213 by broth microdilution susceptibility assay
Type: functional
Settings: not given

Compound | MIC
COc1ccc(/C=C/[N+](=O)[O-])cc1 | > 64 µg/mL
COc1cc(/C=C/[N+](=O)[O-])cc(OC)c1O | > 64 µg/mL

Tested on: P388
Assay: Cytotoxicity against mouse P388 cells after 48 hrs by sulforhodamine B assay
Type: functional
Settings: P388, 48 h, read-out: ED50 (the source's name)

Compound | EC50
COc1ccc(/C=C/[N+](=O)[O-])cc1 | 1.7 µg/mL (≈ 9.49 µM)
COc1cc(/C=C/[N+](=O)[O-])cc(OC)c1O | 2.2 µg/mL (≈ 9.77 µM)

Tested on: Candida albicans
Assay: Antifungal activity against Candida albicans ATCC 90028 after 48 hrs by broth microdilution susceptibility assay
Type: functional
Settings: ATCC 90028, 48 h

Compound | MIC
COc1ccc(/C=C/[N+](=O)[O-])cc1 | 8 µg/mL (≈ 44.6 µM)
COc1cc(/C=C/[N+](=O)[O-])cc(OC)c1O | > 64 µg/mL

Tested on: Micrococcus luteus
Assay: Antimicrobial activity against Micrococcus luteus Presque Isle 456 assessed clear zone in inhibition per disk by CLSI disk diffusion susceptibility assay
Type: functional
Settings: not given

Compound | MIC
COc1ccc(/C=C/[N+](=O)[O-])cc1 | 50 µg
COc1cc(/C=C/[N+](=O)[O-])cc(OC)c1O | >100 µg

Tested on: SF-295
Assay: Cytotoxicity against human SF295 cells after 48 hrs by sulforhodamine B assay
Type: functional
Settings: not given

Compound | GI50
COc1cc(/C=C/[N+](=O)[O-])cc(OC)c1O | inactive

Same assay, conditions: SF-295, 48 h

Compound | GI50
COc1ccc(/C=C/[N+](=O)[O-])cc1 | 1.6 µg/mL (≈ 8.93 µM)

Tested on: not listed separately
Assay: Inhibition of tubulin polymerization
Settings: not given

Compound | IC50
COc1ccc(/C=C/[N+](=O)[O-])cc1 | 5.7 µM
COc1cc(/C=C/[N+](=O)[O-])cc(OC)c1O | 8.5 µM

Tested on: Neisseria gonorrhoeae
Assay: Antimicrobial activity against Neisseria gonorrhoeae ATCC 49226 assessed clear zone of inhibition measured per disk by CLSI disk diffusion susceptibility assay
Type: functional
Settings: not given

Compound | MIC
COc1ccc(/C=C/[N+](=O)[O-])cc1 | 0.78 µg
COc1cc(/C=C/[N+](=O)[O-])cc(OC)c1O | 1.56 µg

Tested on: SK-MEL-5
Assay: Cytotoxicity against human SK-MEL-5 cells after 48 hrs by sulforhodamine B assay
Type: functional
Settings: not given

Compound | GI50
COc1ccc(/C=C/[N+](=O)[O-])cc1 | inactive
COc1cc(/C=C/[N+](=O)[O-])cc(OC)c1O | inactive

Tested on: Enterococcus faecalis
Assay: Antimicrobial activity against Enterococcus faecalis ATCC 29212 assessed clear zone in inhibition per disk by CLSI disk diffusion susceptibility assay
Type: functional
Settings: not given

Compound | MIC
COc1ccc(/C=C/[N+](=O)[O-])cc1 | 50 µg
COc1cc(/C=C/[N+](=O)[O-])cc(OC)c1O | 50 µg

Tested on: Cryptococcus neoformans
Assay: Antimicrobial activity against Cryptococcus neoformans ATCC 90112 assessed clear zone in inhibition per disk by CLSI disk diffusion susceptibility assay
Type: functional
Settings: not given

Compound | MIC
COc1ccc(/C=C/[N+](=O)[O-])cc1 | 1.56 µg
COc1cc(/C=C/[N+](=O)[O-])cc(OC)c1O | 25 µg

Tested on: Escherichia coli
Assay: Antimicrobial activity against Escherichia coli ATCC 25922 by broth microdilution susceptibility assay
Type: functional
Settings: not given

Compound | MIC
COc1ccc(/C=C/[N+](=O)[O-])cc1 | > 64 µg/mL
COc1cc(/C=C/[N+](=O)[O-])cc(OC)c1O | > 64 µg/mL

Tested on: MCF7
Assay: Cytotoxicity against human MCF7 cells after 48 hrs by sulforhodamine B assay
Type: functional
Settings: MCF7, 48 h

Compound | GI50
COc1ccc(/C=C/[N+](=O)[O-])cc1 | 0.54 µg/mL (≈ 3.01 µM)
COc1cc(/C=C/[N+](=O)[O-])cc(OC)c1O | 0.44 µg/mL (≈ 1.95 µM)

Tested on: DU-145
Assay: Cytotoxicity against human DU145 cells after 48 hrs by sulforhodamine B assay
Type: functional
Settings: DU-145, 48 h

Compound | GI50
COc1ccc(/C=C/[N+](=O)[O-])cc1 | 1.7 µg/mL (≈ 9.49 µM)
COc1cc(/C=C/[N+](=O)[O-])cc(OC)c1O | 0.36 µg/mL (≈ 1.6 µM)
